According to patent US12084680B2, “Methods for efficient derivation of human motor neurons from diverse spinal regions” (Wisconsin Alumni Research Foundation, priority 2016, dated 2024):

Assays:
[1] = system: H9 hESCs; experiment: NKX6.1 induction in neurally differentiating H9 hESCs after 24 h treatment (flow cytometry, RT-PCR, day 3); format: cell-based, human
Method: NKX6.1 is the earliest expressed marker in the motor neuron development cascade in vivo, so we examined its expression in response to Wnt/β-catenin, RA, and SHH signaling during hPSC motor neuron differentiation. H9 hESCs were differentiated in E6 medium for 2 days to initiate neural fate acquisition34 and then treated with combinations of RA, purmorphamine (PM, a small molecule agonist of SHH signaling), and CHIR for 24 h (FIG. 4A). […] Using the H9 ishcat2 line, we observed that CHIR-mediated induction of NKX6.1 was β-catenin-dependent, as the optimal 3 days of shRNA-mediated CTNNB1 knockdown upstream of CHIR treatment was required to maximally reduce NKX6.1 induction to 44±1% (FIG. 4E). The correlation between NKX6.1 knockdown and days of doxycycline treatment was presumably due to the time delay for shRNA synthesis and subsequent gene knockdown in Tet-on systems. […] Exogenously added WNT3A (200 ng/mL) could also induce NKX6.1 expression (60±14%) (FIG. 4G), providing further evidence for the involvement of Wnt/β-catenin signaling in this process. In contrast, simultaneous treatment with CHIR and BMP4 (200 ng/mL), a dorsal patterning factor, reduced the expression of NKX6.1 from 91±1% to 68±2% (FIG. 4H).
(§1) hESCs were dissociated with accutase (Thermo Fisher Scientific) and reseeded at 1×10^5 cells/cm2 in E8 medium containing 10 μM ROCK inhibitor (Y27632; R&D Systems) on 6-well polystyrene tissue culture plates coated with 100 μg/mL poly-L-ornithine (PLO; Sigma) and 8 μg/well VTN-NC. The timelines and relevant growth factors/small molecules for all differentiation procedures are described in detail in the Results section and its accompanying figures. Cells were differentiated for various amounts of time in E6 medium containing the same insulin concentration as E8 medium as described above with varying combinations of soluble factors (product information and concentration ranges are found in Table 2). For neuromesodermal induction and HOX propagation, cells were sequentially cultured with FGF8b, CHIR99021 (CHIR), GDF11, and dorsomorphin (DM) as previously described. Briefly, to initiate the neuromesodermal state, cells were changed to E6 medium followed by addition of FGF8b (200 ng/ml) 24 h later. To generate cervical neuromesodermal progenitors, cells were washed with PBS, treated with accutase, and re-seeded in E6 medium containing 200 ng/ml FGF8b, 3 μM CHIR, and 10 μM Y27632 on VTN-NC-coated plates at a density of 1.5×10^5 cells/cm^2 for 48 h. To generate thoracic neuromesodermal progenitors, cells were passaged again after 72 h of CHIR treatment and re-seeded at different densities as described in the text.
Thoracic identity was reached after an additional 24 h. Then, to reach the lumbosacral level, cells were given 30 ng/ml GDF11 and 1 μM DM for an additional 48 h. For neuroectoderm induction and generation of OLIG2^+ progenitors, FGF8b was removed at the designated time points and the concentration of CHIR was increased for 6 h as described in the text, followed by a transition to media containing RA, PM, and SHH for a period of 48 h. For differentiation of the OLIG2^+ progenitors to motor neurons, cells were subcultured by en bloc passage using a cell scraper, reseeded at a 1:200 ratio in Matrigel-coated 8-well chamber slides, and differentiated for 14 days in E6 medium containing 1 μM RA, 100 nM PM, and 100 ng/mL SHH, with media exchange every 3 days (10 μM Y27632 was included during the en bloc passaging step and removed after the first media exchange). For differentiation of lumbar cultures, 1 μM DM was included in all steps. For the myoblast co-culture experiments, OLIG2^+ cultures were en bloc passaged, frozen in E6 medium containing 10% DMSO, shipped to a different location, and thawed 1:10 in 6-well plates under the same conditions as described in FIG. 5. To facilitate neuronal maturation prior to myoblast co-culture, 5 μM DAPT (Tocris) was added from days 8-14 post-thaw. […]

[2] = system: H9 hESCs; experiment: OLIG2 induction in thoracic and lumbar neuroectoderm at various day 5 reseed densities; format: cell-based, human; conditions: for PAX6+/OLIG2+ cells: reseed 1.5×10^5 cells/cm^2
Description: However, OLIG2 induction was less efficient upon employing the standard deterministic HOX patterning protocol to generate thoracic and lumbar neuromesoderm followed by a CHIR boost and application of RA and SHH/PM (FIG. 6A). Only 11±2% and 67±9% of the cells in the thoracic and lumbar cultures, respectively, were PAX6^+/OLIG2^+ (FIGS. 6B-6C). We noted that our standard neuromesodermal protocol always used a reseed density of 1.5×10^5 cells/cm^2, which generates a relatively confluent but not tightly packed cell monolayer 24 h after seeding. Having previously determined that cell density and cell-cell contacts can serve as modulators of neural fate, we explored the effects of seeding density on OLIG2 induction.
as §1
Thoracic identity was reached after an additional 24 h. Then, to reach the lumbosacral level, cells were given 30 ng/ml GDF11 and 1 μM DM for an additional 48 h. For neuroectoderm induction and generation of OLIG2^+ progenitors, FGF8b was removed at the designated time points and the concentration of CHIR was increased for 6 h as described in the text, followed by a transition to media containing RA, PM, and SHH for a period of 48 h. For differentiation of the OLIG2^+ progenitors to motor neurons, cells were subcultured by en bloc passage using a cell scraper, reseeded at a 1:200 ratio in Matrigel-coated 8-well chamber slides, and differentiated for 14 days in E6 medium containing 1 μM RA, 100 nM PM, and 100 ng/mL SHH, with media exchange every 3 days (10 μM Y27632 was included during the en bloc passaging step and removed after the first media exchange). For differentiation of lumbar cultures, 1 μM DM was included in all steps. For the myoblast co-culture experiments, OLIG2^+ cultures were en bloc passaged, frozen in E6 medium containing 10% DMSO, shipped to a different location, and thawed 1:10 in 6-well plates under the same conditions as described in FIG. 5. To facilitate neuronal maturation prior to myoblast co-culture, 5 μM DAPT (Tocris) was added from days 8-14 post-thaw. Flow cytometry, RT-PCR, and qPCR (RPS18 and CTNNB1 Taqman primers from Thermo Fisher Scientific) were conducted as previously described.

Compound: Cc1c[nH]c(-c2cnc(NCCNc3ccc(C#N)cn3)nc2-c2ccc(Cl)cc2Cl)n1 [CHIR, CHIR99021]
- NKX6.1 expression (flow cytometry) ([1]; CHIR 4 μM without BMP4, day 3): 91±1%
- NKX6.1 expression (flow cytometry) ([1]; CHIR alone 6 μM, 24 h, analysed day 3): 98±1%
- NKX6.1 and OLIG2 gene expression (RT-PCR) ([1]; CHIR alone 6 μM, 24 h, day 3): sufficient to induce NKX6.1 but not OLIG2 gene expression
- PAX6+/OLIG2+ cells ([2]; lumbar culture, CHIR boost then RA and SHH/PM): 67±9%
- OLIG2+ cells ([2]; lumbar neuroectoderm, reseed 4×10^5 cells/cm^2, with dorsomorphin, CHIR boost then RA and SHH/PM): 82±3%
- PAX6+/OLIG2+ cells ([2]; thoracic culture, CHIR boost then RA and SHH/PM): 11±2%
- OLIG2+ cells ([2]; thoracic neuroectoderm, day 5 reseed 1×10^5 cells/cm^2, CHIR boost then RA and SHH/PM): 19±5%
- OLIG2+ cells ([2]; thoracic neuroectoderm, day 5 reseed 2×10^5 cells/cm^2, CHIR boost then RA and SHH/PM): 48±3%
- OLIG2+ cells ([2]; thoracic neuroectoderm, day 5 reseed 4×10^5 cells/cm^2, CHIR boost then RA and SHH/PM): 80±3%
